Measured values from patent US20240383840A1, “AMINE-N-OXIDE COMPOUNDS” (Karl Franzens Universität Graz, priority 2021, published 2024).

Assay: Critical micelle concentration (CMC) by Wilhelmy plate method, K100C Force Tensiometer
Assay type: physicochemical
Settings: pH 3; for CMC: critical micelle concentration of the protonated or cationic form, Wilhelmy plate method
Experimental: As a parameter for the surfactant properties of the novel amine-N-oxide compounds, as usual, the critical micelle concentration (CMC), i.e. the concentration of the protonated or cationic form of the surfactants at which micelles can form was used and was determined using a K100C Force Tensiometer from Krüss Scientific according to the Wilhelmy plate method at 25° C. and pH 3. For comparison, dodecyldimethylamine N-oxide (“C1”) was measured under the same conditions.

| SMILES | CMC value (25° C.) [mM] | CMC (25° C.) [mmol/L] | CMC, value marked (3)* (second value of the cell, for (3)*, asterisk not explained, otherwise 25° C.) [mmol/L] |
| --- | --- | --- | --- |
| CCCCCCCCOc1c(C[N+](C)(C)[O-])cc(CC)cc1OC [Compound 1, N,N-dimethyl-1-(5-ethyl-3-methoxy-2-octyloxyphenyl)methanamine N-oxide] | 4.1 | 4.1 |  |
| CCCCCCCCCCOc1c(C[N+](C)(C)[O-])cc(CC)cc1OC [Compound 2, N,N-dimethyl-1-(2-decyloxy-5-ethyl-3-methoxyphenyl)methanamine N-oxide] |  | 570 |  |
| CCCCCCCCCCCCOc1c(C[N+](C)(C)[O-])cc(CC)cc1OC [Compound 3, N,N-dimethyl-1-(2-dodecyloxy-5-ethyl-3-methoxyphenyl)methanamine N-oxide] |  | 89 | 19 |
| CCCCCCCCCCCCCCOc1c(C[N+](C)(C)[O-])cc(CC)cc1OC [Compound 4, N,N-dimethyl-1-(5-ethyl-3-methoxy-2-tetradecyloxyphenyl)methanamine N-oxide] |  | 5.2 |  |
| CCCCCCCCCCCCCCCCOc1c(C[N+](C)(C)[O-])cc(CC)cc1OC [Compound 5, N,N-dimethyl-1-(5-ethyl-2-hexadecyloxy-3-methoxyphenyl)methanamine N-oxide] |  | 4.0 |  |
| CCCCCCCCCCCCCCCCCCOc1c(C[N+](C)(C)[O-])cc(CC)cc1OC [Compound 6, N,N-dimethyl-1-(5-ethyl-3-methoxy-2-octadecyloxyphenyl)methanamine N-oxide] |  | 1.3 |  |
| CCCCCCCCCCCCOc1c(C[N+]2([O-])CCCC2)cc(CC)cc1OC [Compound 7, 1-(2-dodecyloxy-5-ethyl-3-methoxybenzyl)pyrrolidine-1-oxide] |  | 36 |  |
| CCCCCCCCCCCCOc1c(C[N+]2([O-])CCCCC2)cc(CC)cc1OC [Compound 8, 1-(2-dodecyloxy-5-ethyl-3-methoxybenzyl)piperidine-1-oxide] |  | 130 |  |
| CCCCCCCCCCCCOc1c(C[N+](C)(C)[O-])cc(CC)cc1C[N+](C)(C)[O-] [Compound 13, 1,1′-(2-dodecyloxy-5-ethyl-1,3-phenylene)-bis(N,N-dimethylmethanamine N-oxide)] |  | 190 |  |
| CCCCCCCCCCCCCCCCOc1c(C[N+](C)(C)[O-])cc(CC)cc1C[N+](C)(C)[O-] [Compound 14, 1,1′-(5-ethyl-2-hexadecyloxy-1,3-phenylene)-bis(N,N-dimethylmethanamine N-oxide)] |  | 75 |  |
| CCCCCCCCCCCCCCCCCCOc1c(C[N+](C)(C)[O-])cc(CC)cc1C[N+](C)(C)[O-] [Compound 15, 1,1′-(5-ethyl-2-octadecyloxy-1,3-phenylene)-bis(N,N-dimethylmethanamine N-oxide)] |  | 29 |  |
| CCCCCCCCCCCC[N+](C)(C)[O-] [Compound C1, dodecyldimethylamine N-oxide, reference compound] |  | 4200 |  |
